# Laboratory results reported in patent US20160002273A1, “THIENO[3,2-D]PYRIMIDINE-6-CARBOXAMIDES AND ANALOGUES AS SIRTUIN MODULATORS” (GLAXOSMITHKLINE LLC, priority 2013, published 2016).
# Read-outs that look alike come from different tables or passages of the source.
# Columns and labels:
# SIRT1 = biological target: T1, SIRT1 (Homo sapiens, UniProt Q96EB6); assay: SIRT1 deacetylation of Trp 5-mer peptide, OAADPr mass spec assay
# T1 sequence (Q96EB6 1-747): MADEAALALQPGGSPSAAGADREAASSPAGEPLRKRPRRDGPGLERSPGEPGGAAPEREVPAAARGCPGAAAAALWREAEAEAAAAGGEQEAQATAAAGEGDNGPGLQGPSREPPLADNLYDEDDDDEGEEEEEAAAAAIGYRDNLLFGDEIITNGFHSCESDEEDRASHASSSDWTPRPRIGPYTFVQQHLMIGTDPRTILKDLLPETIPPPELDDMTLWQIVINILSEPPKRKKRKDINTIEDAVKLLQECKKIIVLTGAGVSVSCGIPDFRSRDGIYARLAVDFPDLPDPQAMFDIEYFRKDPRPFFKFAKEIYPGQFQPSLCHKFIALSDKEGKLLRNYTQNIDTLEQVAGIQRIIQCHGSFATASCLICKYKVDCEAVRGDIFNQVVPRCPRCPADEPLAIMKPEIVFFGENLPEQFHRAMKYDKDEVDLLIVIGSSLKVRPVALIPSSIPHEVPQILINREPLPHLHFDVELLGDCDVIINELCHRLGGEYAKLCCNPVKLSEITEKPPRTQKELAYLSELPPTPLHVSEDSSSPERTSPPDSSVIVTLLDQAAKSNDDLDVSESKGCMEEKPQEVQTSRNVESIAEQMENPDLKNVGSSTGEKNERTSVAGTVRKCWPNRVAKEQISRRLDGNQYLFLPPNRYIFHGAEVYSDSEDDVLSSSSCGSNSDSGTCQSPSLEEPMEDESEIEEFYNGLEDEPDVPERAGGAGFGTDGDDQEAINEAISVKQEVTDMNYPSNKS
# Experimental: (§1) All assays were performed at room temperature in reaction buffer (50 mM HEPES, pH 7.5, 150 mM NaCl, 1 mM DTT, 0.05% BSA). […] To prepare the assays for analysis, 20 μL of reaction volume was mixed in 80 μL of 50:50 acetonitrile:methanol mixture. […] Peak data was integrated using RapidFire Integrator software (Agilent, Santa Clara, Calif.).
# SIRT2 = biological target: T2, SIRT2 (Homo sapiens, UniProt Q8IXJ6); assay: SIRT2 deacetylation of Trp 5-mer peptide, OAADPr mass spec assay; format: biochemical; parameters: His-SIRT2(1-389)
# T2 sequence (Q8IXJ6 1-389): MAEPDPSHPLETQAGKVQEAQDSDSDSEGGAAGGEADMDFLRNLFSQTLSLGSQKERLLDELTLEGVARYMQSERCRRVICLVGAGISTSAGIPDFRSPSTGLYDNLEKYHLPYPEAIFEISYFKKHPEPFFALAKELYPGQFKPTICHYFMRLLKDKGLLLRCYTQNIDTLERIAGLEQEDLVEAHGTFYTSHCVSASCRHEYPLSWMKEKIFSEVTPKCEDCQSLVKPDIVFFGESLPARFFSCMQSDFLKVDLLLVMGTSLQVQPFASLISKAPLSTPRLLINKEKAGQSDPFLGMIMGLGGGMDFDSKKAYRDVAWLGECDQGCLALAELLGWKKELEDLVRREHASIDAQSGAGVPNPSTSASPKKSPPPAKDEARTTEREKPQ
# SIRT3 = biological target: T3, SIRT3 (Homo sapiens, UniProt Q9NTG7); assay: SIRT3 deacetylation of Trp 5-mer peptide, OAADPr mass spec assay; details: Trp SIRT3_IC50, Trp 5-mer peptide; class symbols
# T3 sequence (Q9NTG7 102-399): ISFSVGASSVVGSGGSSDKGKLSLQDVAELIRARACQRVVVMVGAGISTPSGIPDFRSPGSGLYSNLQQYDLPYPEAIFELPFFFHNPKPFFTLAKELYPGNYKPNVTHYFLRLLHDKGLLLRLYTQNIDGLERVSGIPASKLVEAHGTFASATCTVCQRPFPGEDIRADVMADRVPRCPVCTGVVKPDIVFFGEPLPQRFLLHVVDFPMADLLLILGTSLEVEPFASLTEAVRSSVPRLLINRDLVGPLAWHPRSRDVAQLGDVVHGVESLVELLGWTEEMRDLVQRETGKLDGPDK
# Experimental: as §1
# [1] = Trp SIRT1_IC50, Trp 5-mer peptide, class symbols
# [2] = Trp 5-mer peptide, class symbols, read-out: Trp SIRT2_IC50
# [3] = read-out: IC50 (μM) SIRT1, Trp 5-mer peptide and NAD at KM, mean of at least three determinations
# [4] = Trp 5-mer peptide and NAD at KM, mean of at least three determinations, read-out: IC50 (μM) SIRT2
# [5] = IC50 (μM) SIRT1, Trp 5-mer peptide and NAD at KM, mean of at least three determinations
# [6] = Trp SIRT2_IC50, Trp 5-mer peptide, class symbols
SMILES,IC50 (SIRT1; [1]),IC50 (SIRT2; [2]),IC50 (SIRT3),IC50 (SIRT1; [3]),IC50 (SIRT2; [4]),IC50 (SIRT1; [5]),"IC50 (SIRT2; IC50 (μM) SIRT2, Trp 5-mer peptide and NAD at KM, mean of at least three determinations)",IC50 (SIRT2; [6]),"SIRT1 inhibition, in words (SIRT1; at the concentrations tested)","SIRT2 inhibition, in words (SIRT2; at the concentrations tested)"
"NCCC1CCN(c2ccnc3cc(C(N)=O)sc23)CC1 [Compound 104, 7-(4-(2-aminoethyl)piperidin-1-yl)thieno[3,2-b]pyridine-2-carboxamide]",1 to 10 µM,< 1 µM,< 1000 nM,–,–,–,–,–,–,–
NC(=O)c1cc2ncnc(N3CCN(CCNC(=O)C4CCCC4)CC3)c2s1 [Compound 63],< 1 µM,< 1 µM,< 1000 nM,–,–,–,–,–,–,–
"CN(C)CC1CCN(c2ncnc3cc(C(N)=O)sc23)CC1 [Compound 43, 4-(4-((dimethylamino)methyl)piperidin-1-yl)thieno[3,2-d]pyrimidine-6-carboxamide]",1 to 10 µM,< 1 µM,< 1000 nM,–,–,–,–,–,–,–
"NCCC1CCN(c2ncnc3cc(C(N)=O)oc23)CC1 [Compound 95, 4-(4-(2-aminoethyl)piperidin-1-yl)furo[3,2-d]pyrimidine-6-carboxamide]",1 to 10 µM,< 1 µM,1000 to 10000 nM,–,–,–,–,–,–,–
Cc1nc(N2CCN(CCN3CCCC3)CC2)c2sc(C(N)=O)cc2n1 [Compound 150],1 to 10 µM,1 to 10 µM,< 1000 nM,–,–,–,–,–,–,–
"NC(=O)c1cc2ncnc(N3CCC(CCNC(=O)c4ccc(C(=O)O)s4)CC3)c2s1 [Compound 18, 5-((2-(1-(6-carbamoylthieno[3,2-d]pyrimidin-4-yl)piperidin-4-yl)ethyl)carbamoyl)thiophene-2-carboxylic acid]",< 1 µM,< 1 µM,–,0.014 µM,0.004 µM,–,–,–,–,–
CC(=O)NCCC1CCN(c2ncnc3cc(C(N)=O)sc23)CC1 [Compound 20],< 1 µM,< 1 µM,–,0.11 µM,0.023 µM,–,–,–,–,–
CNC(=O)CC1CCN(c2ncnc3cc(C(N)=O)sc23)CC1 [Compound 48],1 to 10 µM,1 to 10 µM,1000 to 10000 nM,–,–,–,–,–,–,–
"CC(C)(C)C(=O)NCCC1CCN(c2ncnc3cc(C(N)=O)oc23)CC1 [Compound 36, 4-(4-(2-pivalamidoethyl)piperidin-1-yl)furo[3,2-d]pyrimidine-6-carboxamide]",< 1 µM,< 1 µM,–,0.47 µM,0.15 µM,–,–,–,–,–
"CC(C)(C)C(=O)NCC1CCN(c2ncnc3cc(C(N)=O)sc23)CC1 [Compound 27, 4-(4-(pivalamidomethyl)piperidin-1-yl)thieno[3,2-d]pyrimidine-6-carboxamide]",1 to 10 µM,< 1 µM,–,4.3 µM,0.74 µM,–,–,–,–,–
"Cc1c(C(N)=O)sc2c(N3CCC(CCNC(=O)C(C)(C)C)CC3)ncnc12 [Compound 39, 7-methyl-4-(4-(2-pivalamidoethyl)piperidin-1-yl)thieno[3,2-d]pyrimidine-6-carboxamide]",< 1 µM,< 1 µM,–,0.18 µM,0.13 µM,–,–,–,–,–
NC(=O)c1cc2ncnc(N3CCC(CCN4CCCC4)CC3)c2s1 [Compound 34],< 1 µM,< 1 µM,–,0.11 µM,0.067 µM,–,–,–,–,–
"CC(C)(C)C(=O)NCCN1CCN(c2ncnc3cc(C(N)=O)sc23)CC1 [Compound 30, 4-(4-(2-pivalamidoethyl)piperazin-1-yl)thieno[3,2-d]pyrimidine-6-carboxamide]",< 1 µM,< 1 µM,–,0.12 µM,0.017 µM,–,–,–,–,–
CC(=O)NCCN1CCN(c2ncnc3cc(C(N)=O)sc23)CC1 [Compound 24],1 to 10 µM,< 1 µM,–,1.6 µM,0.17 µM,–,–,–,–,–
"CC(C)(C)OC(=O)NCC1CCN(c2ncnc3cc(C(N)=O)sc23)CC1 [Compound 57, tert-butyl ((1-(6-carbamoylthieno[3,2-d]pyrimidin-4-yl)piperidin-4-yl)methyl)carbamate]",–,1 to 10 µM,> 10000 nM,–,–,–,–,–,–,–
CC(=S)NCCN1CCN(c2ncnc3cc(C(N)=O)sc23)CC1 [Compound 26],< 1 µM,< 1 µM,–,0.49 µM,0.13 µM,–,–,–,–,–
"NC(=O)c1cc2ncnc(N3CCN(CCN4CCCC4)CC3)c2s1 [Compound 35, 4-(4-(2-(Pyrrolidin-1-yl)ethyl)piperazin-1-yl)thieno[3,2-d]pyrimidine-6-carboxamide bis(2,2,2-trifluoroacetate)]",< 1 µM,< 1 µM,–,0.053 µM,0.029 µM,–,–,–,–,–
"CS(=O)(=O)NCCN1CCN(c2ncnc3cc(C(N)=O)sc23)CC1 [Compound 32, 4-(4-(2-(methylsulfonamido)ethyl)piperazin-1-yl)thieno[3,2-d]pyrimidine-6-carboxamide 2,2,2-trifluoroacetate]",< 1 µM,< 1 µM,–,0.38 µM,0.053 µM,–,–,–,–,–
"CC(C)(C)C(=O)NCCC1CCN(c2ccnc3cc(C(N)=O)sc23)CC1 [Compound 37, 7-(4-(2-pivalamidoethyl)piperidin-1-yl)thieno[3,2-b]pyridine-2-carboxamide]",< 1 µM,< 1 µM,–,0.059 µM,0.028 µM,–,–,–,–,–
"CC(C)(C)C(=O)NCCCC1CCN(c2ncnc3cc(C(N)=O)sc23)CC1 [Compound 29, 4-(4-(3-pivalamidopropyl)piperidin-1-yl)thieno[3,2-d]pyrimidine-6-carboxamide]",< 1 µM,< 1 µM,–,0.042 µM,0.016 µM,–,–,–,–,–
CS(=O)(=O)NCCC1CCN(c2ncnc3cc(C(N)=O)sc23)CC1 [Compound 31],–,< 1 µM,–,–,0.001 µM,–,–,–,–,–
NC(=O)c1cc2ncnc(N3CCC(CN4CCCC4)CC3)c2s1 [Compound 33],< 1 µM,< 1 µM,–,0.73 µM,0.22 µM,–,–,–,–,–
"CC(C)(C)OC(=O)c1ccc(C(=O)NCCC2CCN(c3ncnc4cc(C(N)=O)sc34)CC2)s1 [Compound 17, tert-butyl 5-((2-(1-(6-carbamoylthieno[3,2-d]pyrimidin-4-yl)piperidin-4-yl)ethyl)carbamoyl)thiophene-2-carboxylate]",< 1 µM,–,–,–,–,0.007 µM,0.001 µM,< 1 µM,–,–
"NC(=O)c1cc2ncnc(N3CCC(CCNC(=O)c4cccs4)CC3)c2s1 [Compound 19, 4-(4-(2-(thiophene-2-carboxamido)ethyl)piperidin-1-yl)thieno[3,2-d]pyrimidine-6-carboxamide]",< 1 µM,< 1 µM,–,–,0.007 µM,0.006 µM,–,–,–,–
"CC(C)(C)OC(=O)NCCC1CCN(c2ncnc3cc(C(N)=O)sc23)CC1 [Compound 15a, tert-butyl (2-(1-(6-carbamoylthieno[3,2-d]pyrimidin-4-yl)piperidin-4-yl)ethyl)carbamate]",< 1 µM,< 1 µM,–,0.017 µM,0.005 µM,–,–,–,–,–
"CC(C)(C)C(=O)NCCC1CCN(c2ncnc3cc(C(=O)O)sc23)CC1 [Compound 40, 4-(4-(2-Pivalamidoethyl)piperidin-1-yl)thieno[3,2-d]pyrimidine-6-carboxylic acid 2,2,2-trifluoroacetate]",> 10 µM,> 10 µM,–,–,–,–,–,–,no measurable,no measurable
"NCCC1CCN(c2ncnc3cc(C(N)=O)sc23)CC1 [Compound 16a, 4-(4-(2-aminoethyl)piperidin-1-yl)thieno[3,2-d]pyrimidine-6-carboxamide]",1 to 10 µM,–,–,1.6 µM,0.11 µM,–,–,< 1 µM,–,–
